Biological target: T1, human LCE (Homo sapiens, UniProt Q9H5J4)
T1 sequence (Q9H5J4 1-265): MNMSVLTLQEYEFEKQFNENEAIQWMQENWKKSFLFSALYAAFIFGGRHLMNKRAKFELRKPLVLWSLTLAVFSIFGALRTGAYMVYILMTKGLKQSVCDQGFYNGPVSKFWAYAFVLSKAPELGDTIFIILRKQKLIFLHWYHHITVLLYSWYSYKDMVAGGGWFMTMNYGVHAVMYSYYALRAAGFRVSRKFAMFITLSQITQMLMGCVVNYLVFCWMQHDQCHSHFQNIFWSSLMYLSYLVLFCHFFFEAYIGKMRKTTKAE
Test: LCE enzyme activity-inhibitory test
Assay type: biochemical
Conditions: palmitoyl CoA and [14C]-malonyl CoA substrates, pH 6.5, 37° C., 90 minutes
Description: A test compound was dissolved in dimethyl sulfoxide (DMSO to be 10 mM), and then diluted with DMSO to prepare a 1000-fold concentrated solution of the test concentration. An improved Moon et al's method (J. Biol. Chem., Vol. 276, pp. 45358-45366, 2001) was employed for the LCE enzyme activity-inhibitor test. Concretely, the diluted compound was applied to a 96-well assay plate (Corning, 96-well assay block) in an amount of 1.0 μL/well; 50 μL of a phosphate buffer solution (100 mM potassium phosphate buffer, pH 6.5), and 25 μL of a substrate solution (100 mM potassium phosphate buffer (pH 6.5), 4.0 μM rotenone, 80 μM fatty acid-free bovine serum albumin, 160 μM palmitoyl CoA, 80 μM malonyl CoA, 3.5 μM [^14C]-malonyl CoA (1.92 GBq/mmol, by Amersham)) were added to each well; 25 μL of an enzyme solution (100 mM potassium phosphate buffer (pH 6.5), 100 μg/mL human LCE) was added thereto; the top of the plate was airtightly sealed up; and this was incubated with gently shaking and stirring at 37° C. for 90 minutes. Next, 100 μL of 5 N hydrochloric acid was added to each well, and the assay plate was stirred at room temperature for 5 minutes to stop the enzyme reaction with hydrolyzing the acyl CoA. Next, the enzyme reaction solution in each well was adsorbed by each well of a 96-well GF/C filter plate (Perkin Elmer Unifilter 96 GF/C); the individual wells were washed with water to remove the non-adsorbed malonyl CoA; and the GF/C filter plate was dried at 50° C. for 60 minutes. Next, 30 μL of a scintillator (Perkin Elmer Microscinti 0) was added to each well; then the top of the plate was sealed up; and the fixed [^14C] radioactivity was measured with a microplate scintillation counter (Perkin Elmer TopCount) to be the enzyme activity. The human LCE enzyme-inhibitory activity of the test compound was calculated, based on the radioactivity of the DMSO-added well with no test compound therein as a control.

Row | IC50 | SMILES
1 | 131 nM | CC(C)Oc1ccc(NC(=O)[C@@H]2CCC[C@@H](S(=O)(=O)c3ccncc3)C2)nc1 (racemic) [Example 9, (1R*,3R*)-N-(5-isopropoxypyridin-2-yl)-3-(pyridin-4-ylsulfonyl)cyclohexanecarboxamide]
2 | 43 nM | CC(C)Oc1ccc(NC(=O)[C@@H]2CCC[C@@H](S(=O)(=O)c3ccccn3)C2)nc1 (racemic) [Example 8, (1R*,3R*)-N-(5-isopropoxypyridin-2-yl)-3-(pyridin-2-ylsulfonyl)cyclohexanecarboxamide]
3 | 26 nM | CC(C)Oc1ccc(NC(=O)[C@@H]2CCC[C@@H](S(=O)(=O)c3ncccn3)C2)nc1 (racemic) [Example 10, (1R*,3R*)-N-(5-isopropoxypyridin-2-yl)-3-(pyrimidin-2-ylsulfonyl)cyclohexanecarboxamide]
4 | 32 nM | CC(C)Oc1ccc(NC(=O)[C@@H]2CCC[C@@H](S(=O)(=O)c3nccs3)C2)nc1 (racemic) [Example 11, (1R*,3R*)-N-(5-isopropoxypyridin-2-yl)-3-(1,3-thiazol-2-ylsulfonyl)cyclohexanecarboxamide]
5 | 233 nM | CC(C)Oc1ccc(NC(=O)[C@@H]2CCC[C@@H](S(=O)(=O)c3ccccn3)C2)cc1 (racemic) [Example 2, (1R*,3R*)-N-(4-isopropoxyphenyl)-3-(pyridin-2-ylsulfonyl)cyclohexanecarboxamide]
6 | 30 nM | CC(C)Oc1ccc(NC(=O)[C@@H]2CCC[C@@H](S(=O)(=O)c3ccccc3)C2)nc1 (racemic) [Example 7, (1R*,3R*)-N-(5-isopropoxypyridin-2-yl)-3-(phenylsulfonyl)cyclohexanecarboxamide]
7 | 130 nM | CC(C)Oc1ccc(NC(=O)[C@@H]2CCC[C@@H](S(=O)(=O)c3cnccn3)C2)nc1 (racemic) [Example 13, (1R*,3R*)-N-(5-isopropoxypyridin-2-yl)-3-(pyrazin-2-ylsulfonyl)cyclohexanecarboxamide]
